Patent publication US20100069345A1, “Lanthanide-porphyrin complexes as anti-tumor agents” (priority 2005, published 2010)

Assays:
[1] = tested on: human breast cancer cells (MCF-7); test: MTT cell viability assay, MCF-7; assay type: cell-based
From the text: (§1) Human cervical epitheloid carcinoma cells (HeLa), human hepatocellular carcinoma cells (HepG2 and Hep3B), human breast cancer cells (MCF-7), human coloadenocarcinoma cells (HCT-8), and normal human lung fibroblast cells (CCD-19Lu) were purchased from American Type Culture Collection (ATCC) Rockville, Md., USA. The human hepatocellular cancinoma cells QGY-7703, and the multi-drug resistant cell line QGY-TR50 derived from QGY-7703, were generously provided by Prof. Yong Xie (The Hong Kong University of Science and Technology, Hong Kong PRC). QGY-TR50 cells were isolated and cultured as described (J. Zhou, S. C. Cheng, D. Luo, Y. Xie Biochem. Biophys. Res. Commun. 2001, 280, 1237-1242). Human nasopharyngeal carcinoma cells (SUNE1 and its cisplatin-resistant variant—CNE2) were derived from poorly differentiated NPC in Chinese patients and were generously provided by Dr. S. W. Tsao (The University of Hong Kong, Hong Kong PRC). Cell culture flasks and 96-well microtitre plates were from Nalge Nunc Int. Culture medium, other medium constituents and phosphate buffer saline (PBS) were obtained by Gibco BRL Rockville, Md., USA. Cell Proliferation kit I (MTT) was purchased from Roche. Mannheim, Germany.

[2] = tested on: different human liver carcinoma cells; test: Cytotoxicity toward different human liver carcinoma cells; assay type: cell-based; conditions: treatment for 48 h
From the text: as §1

[3] = Stability by UV-visible in DMSO/Tris buffer; assay type: physicochemical; conditions: DMSO/Tris buffer solution (1:9), 24 h, room temperature; complex 1 3 μM, complex 2b 7 μM
Protocol: UV-visible experiments. The absorption spectra of 3 μM of complex 1 in DMSO/Tris buffer solution (1:9) were monitored for 24 h. […] The complex was monitored over 24 h at room temperature and about 23% decrease in the Soret band intensity was recorded without any significant spectral shift in both Soret and Q-bands (FIG. 5). The absorption spectra of 7 μM of complex 2b in DMSO/Tris buffer solution (1:9) were also monitored for 24 h.

[4] = tested on: cytochrome c; test: Western blotting of mitochondrial and cytosolic fractions, cytochrome c; assay type: cell-based, human; conditions: HeLa treated with complex 1
Protocol: Preparation of Mitochondrial and Cytosolic Fractions. Subcellular fractionations of cells were carried out as described previously with modifications […]. In brief, cells were harvested by centrifugation at 1000 g for 5 min at 4° C. Cell pellets were washed once with ice-cold phosphate-buffered saline and resuspended in 5 volumes of buffer A (20 mM HEPES-KOH, pH 7.5, 10 mM KCl, 1.5 mM MgCl2, 1 mM sodium EDTA, 1 mM sodium EGTA, 1 mM dithiothreitol, 0.1 mM phenylmethylsulfonyl fluoride, 1× proteinase inhibitor mix) containing 250 mM sucrose. After incubation on ice for 15 min, the cells were homogenized with a 25-gauge needle for 20 strokes, and the homogenates were centrifuged at 1,000 g for 5 min at 4° C. […] The protein concentration of cell lysates in different portions was measured using a protein detection kit (Bio-Rad). […] Signals were detected using an ECL detection kit (Amersham Pharmacia Biotech) followed by exposure to X-ray films (Fujifilm).
After treatment with complex 1 for different time intervals, the expressions of caspase 3, Bid and PARP were detected by the Western blotting analysis. […]

[5] = tested on: HeLa cells; test: Transmission electron microscopy of autophagic cells; assay type: cell-based, human; conditions: 1 μM, 2 h
Protocol: Transmission Electron Microscopy. HeLa cells (12×10^4) were seeded on 60 mm plate. Cells were treated with 1 (1 μM) for 2 h, respectively. Cells were then trypsinized, washed twice with PBS and fixed with ice-cold glutaraldehyde (2.5% in 0.1 M cacodylate buffer, pH 7.4) for 30 min. After primary fixation, cells were washed with cacodylate buffer, post-fixed with 1% osmium tetraoxide for 30 min. Osmium tetraoxide was removed and the cell pellet was washed with cacodylate buffer. Pre-warmed gelatin was added to the cell pellet and immediately centrifuged at 2500 rpm for 5 min. The gelatin was dehydrated by immersing in 30% EtOH, 50% EtOH, 70% EtOH once, and in 90% EtOH twice for 5 min and finally in absolutely EtOH for 10 min for three times. The dehydrated sample was washed with propylene oxide twice for 5 min and then immersed in propylene oxide:resin (1:1) for overnight. The sample was immersed in pure resin for 30 min before embedded in Polybed. Specimens were examined using 208S Philips transmission electron microscopy.
Cells treated with 1 were subjected to transmission electron microscopic analysis.

[6] = tested on: LC3; test: Subcellular distribution of GFP-LC3; assay type: cell-based, human; conditions: HeLa transfected with GFP-LC3, 1 μM, 1-4 hours
Protocol: Subcellular Distribution of LC3. HeLa cells were transiently transfected with a plasmid expressing green fluorescent protein-tagged LC3 (GFP-LC3) using GeneJuice (Novagen, USA). After overnight incubation, HeLa cells were treated 1 (1 μM) for 1, 2, 3, and 4 hours respectively. Green fluorescence of GFP-LC3 was examined under the Olympus IX71 microscope (Melville, N.Y.). Images were captured with CCD digital camera RT COLOR, Spot (Diagnostic Instruments, Inc., Melville, N.Y.).
The redistribution of microtubule-associated protein 1 light chain 3 (LC3) was also examined. LC3 is a maker of autophagosomes in mammalian cells which the localization changes from a diffuse cytosolic pattern to a punctuate pattern representing its recruitment to the autophagosomal membrane during the induction of autophagy. HeLa cells were transfected with plasmid encoded a fusion protein of GFP and LC3 (GFP-LC3), so that the cellular trafficking of LC3 can be directly visualized by live fluorescence microscopy.

[7] = tested on: HeLa cells; test: Effect of 3-MA on 1-induced cytotoxicity (MTT); assay type: cell-based, human; conditions: 3-MA 10 mM 1 h then 1 for 24 h, P<0.001
Protocol: HeLa cells were pre-treated with 3-MA (10 mM) for 1 h, and then with 1 for 24 h as indicated. Cell viability was measured using MTT assay *, P<0.001. Effect of 3-MA on 1-induced cytotoxicity. Cells were seeded on 96-well microtitre plates (8×10^3 cells per well). After overnight incubation, the cells were pre-incubated with 3-methyladenine (3-MA, 10 mM) for 1 hour and then in the presence of 1 (DMSO<1%) for 24 h. Cell viability was measured by MTT assay as described before.

Substance: [Yb2(OEP)2](μ-OH)2 [Complex 1]
- IC50 ratio cisplatin/complex, MCF-7 ([1]; IC50 of cisplatin divided by IC50 of complex): 63.89
- IC50 ([1]; MTT, 37° C., 48 h, mean ± SD): 550 nM
- cytotoxic activity toward breast cancer cell line (MCF-7), times higher than that of cisplatin ([1]; compared with cisplatin): 60 times
- IC50 [2]: 60 to 780 nM
- decrease in Soret band intensity [3]: about 23%
- amount of cytochrome c in the cytosolic fraction [4]: increase
- amount of cytochrome c in the mitochondria [4]: corresponding decrease
- autophagic vacuoles by transmission electron microscopy [5]: vesicular structures reminiscence of autophagic vacuoles
- redistribution of GFP-LC3 [6]: time-dependent increase in punctuated green fluorescence
- effect of 3-MA pretreatment on viability of 1-treated cells [7]: significantly increases cell viability
